The assay addresses Rho-associated protein kinase 2 (Homo sapiens, UniProt O75116). As to the kind of experiment: Inhibition of ROCK2 (unknown origin) using KRRRLSSLRA as substrate incubated for 75 mins in presence of ATP and DTT by Kinase-Glo luminescent assay. For orientation: In Kinase-Glo more light means more ATP remaining.

The results in this text go back to ChEMBL document CHEMBL4706739, “Novel Heterobicyclic Carboxamides for Treating Eye Diseases” (ACS Med Chem Lett, 2021).

Rho-associated protein kinase 2, sequence (O75116 whole entry): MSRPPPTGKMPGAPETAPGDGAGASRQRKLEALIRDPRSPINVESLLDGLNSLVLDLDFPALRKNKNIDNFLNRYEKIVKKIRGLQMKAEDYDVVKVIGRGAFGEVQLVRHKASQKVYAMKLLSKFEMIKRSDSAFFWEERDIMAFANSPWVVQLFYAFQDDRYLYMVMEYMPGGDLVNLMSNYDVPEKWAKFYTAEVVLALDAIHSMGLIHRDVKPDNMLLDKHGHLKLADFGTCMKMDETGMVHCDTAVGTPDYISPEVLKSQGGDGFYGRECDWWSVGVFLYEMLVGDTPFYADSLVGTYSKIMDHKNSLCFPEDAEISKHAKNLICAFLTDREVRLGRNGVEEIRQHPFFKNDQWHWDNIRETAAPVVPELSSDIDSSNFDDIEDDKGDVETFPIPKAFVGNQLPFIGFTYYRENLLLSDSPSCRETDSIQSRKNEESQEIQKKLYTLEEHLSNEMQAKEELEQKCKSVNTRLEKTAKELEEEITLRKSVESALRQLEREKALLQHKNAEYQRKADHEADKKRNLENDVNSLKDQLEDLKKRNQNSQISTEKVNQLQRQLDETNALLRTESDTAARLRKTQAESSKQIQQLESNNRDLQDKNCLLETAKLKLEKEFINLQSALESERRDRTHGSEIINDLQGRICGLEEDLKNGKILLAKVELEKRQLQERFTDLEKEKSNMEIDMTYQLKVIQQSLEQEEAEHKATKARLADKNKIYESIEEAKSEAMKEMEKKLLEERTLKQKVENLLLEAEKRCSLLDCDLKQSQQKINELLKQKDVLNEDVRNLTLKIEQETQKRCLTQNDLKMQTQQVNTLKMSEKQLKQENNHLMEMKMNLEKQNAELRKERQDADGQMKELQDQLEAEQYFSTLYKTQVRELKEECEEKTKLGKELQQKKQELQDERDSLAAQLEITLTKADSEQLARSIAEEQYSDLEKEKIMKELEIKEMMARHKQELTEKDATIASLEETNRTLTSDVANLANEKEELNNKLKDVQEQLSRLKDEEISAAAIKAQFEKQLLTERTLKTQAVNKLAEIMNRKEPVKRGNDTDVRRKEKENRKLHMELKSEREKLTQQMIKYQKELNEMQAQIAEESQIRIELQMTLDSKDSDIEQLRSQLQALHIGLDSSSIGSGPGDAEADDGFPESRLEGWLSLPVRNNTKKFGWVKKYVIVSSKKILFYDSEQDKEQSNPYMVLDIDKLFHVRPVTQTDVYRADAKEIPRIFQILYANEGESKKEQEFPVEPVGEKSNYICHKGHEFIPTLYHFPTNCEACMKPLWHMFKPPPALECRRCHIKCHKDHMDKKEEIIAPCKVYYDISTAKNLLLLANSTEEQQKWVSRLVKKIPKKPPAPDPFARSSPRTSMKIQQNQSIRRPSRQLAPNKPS

With `O=C(Nc1ccc2cnccc2n1)[C@@H]1C[C@H]1c1ccc(S(=O)(=O)Nc2ccccn2)cc1`, the IC50 came out at 6 nM.
Under `O=C(Nc1nc2ccncc2s1)[C@@H]1C[C@H]1c1ccc(S(=O)(=O)Nc2ccccn2)cc1` stands 6 nM.

Broadly, the IC50 is the concentration needed to halve the response being measured.
